# Literature values, collected in patent publication US20170051350A1, “METHOD AND SYSTEM TO PREDICT RESPONSE TO TREATMENTS FOR MENTAL DISORDERS” (Pathway Genomics Corporation, priority 2013, published 2017).
# Like-named read-outs stand apart in the source and are kept apart here.
# System: CYP2D6
# Settings: cited from earlier work
# [1] = CYP2D6 Intermediate Metabolizer
SMILES,"plasma concentrations (drug, or drug combined with its active metabolite) [1]",risk of adverse effects [1],"plasma concentrations (drug, or drug combined with its active metabolite) (CYP2D6 Poor Metabolizer)",risk of adverse effects (CYP2D6 Poor Metabolizer),"plasma concentrations (drug, or drug combined with its active metabolite) (CYP2D6 Ultrarapid Metabolizer)",plasma concentrations of reduced haloperidol (CYP2D6 Poor Metabolizer),"risk of extrapyramidal symptoms (CYP2D6 Ultrarapid metabolizer, in one study)",risk of therapeutic failure (CYP2D6 Ultrarapid Metabolizer),"levels of the active metabolite, O-desmethylvenlafaxine, at standard doses (CYP2D6 Poor Metabolizer)","plasma levels of the active metabolite, O-desmethylvenlafaxine, at standard doses (CYP2D6 Ultrarapid Metabolizer)"
CN(C)CCC=C1c2ccccc2CCc2ccccc21 [Amitriptyline],may have increased,increased risk,increased plasma,increased risk,,,,,,
CN(C)CCC=C1c2ccccc2COc2ccccc21 [Doxepin],may have increased,may increase the risk,increased,may increase the risk,"Patient's genotype is associated with decreased plasma concentrations of doxepin. Consider alternative medications,",,,,,
CNCC[C@H](Oc1cccc2ccccc12)c1cccs1 [Duloxetine],"Patient may have increased plasma concentrations of duloxetine at standard doses (PMID 17380590, 17713974).",,"Patient may have increased plasma concentrations of duloxetine at standard doses (PMID 17380590, 17713974).",,,,,,,
O=C(CCCN1CCC(O)(c2ccc(Cl)cc2)CC1)c1ccc(F)cc1 [Haloperidol],"Patient may have increased plasma concentrations of haloperidol (PMID 12386646, 10519444, 10096261).",,,Patient has increased risk of extrapyramidal symptoms and other adverse effects. Consider reducing the dose or,,"fluphenazine, quetiapine, olanzapine or clozapine (PMID 21412232). Patient's genotype is associated with increased","In one study, individuals with this patient's CYP2D6 metabolizer status had a slightly increased risk of extrapyramidal",,,
CN1CCN2c3ncccc3Cc3ccccc3C2C1 (centres unmarked) [Mirtazapine],"Patient may have increased plasma concentrations of mirtazapine, though it is unclear if increased plasma",,"Patient may have increased plasma concentrations of mirtazapine at standard doses, though it is unclear if increased",,,,,,,
Fc1ccc([C@@H]2CCNC[C@H]2COc2ccc3c(c2)OCO3)cc1 [Paroxetine],,"paroxetine, which may increase risk of sexual dysfunction (PMID 8880055, 12870705, 1531950).",,Patient may have increased risk of drug-drug interactions [PMID 16476833] and sexual dysfunction [PMID 12870705].,,,,,,
OCCN1CCN(CCCN2c3ccccc3Sc3ccc(Cl)cc32)CC1 [Perphenazine],"Patient's genotype is associated with increased plasma concentrations of perphenazine (PMID 17429316, 8612387),",,"Patient's genotype is associated with increased plasma concentrations of perphenazine (PMID 17429316, 8612387,","8689810), which may increase risk of adverse effects (FDA approved perphenazine drug label, PMID 9333110,",Patient's genotype is associated with decreased plasma concentrations of perphenazine.,,,,,
CC(CN(C)C)CN1c2ccccc2CCc2ccccc21 (centres unmarked) [Trimipramine],Patient's genotype is associated with increased plasma concentrations of trimipramine and desmethyltrimipramine,,Patient's genotype is associated with increased plasma concentrations of trimipramine and desmethyltrimipramine,"patient may be at increased risk of adverse effects, such as sedation (PMID 14646691).",decreased,,,increased risk,,
COc1ccc(C(CN(C)C)C2(O)CCCCC2)cc1 (centres unmarked) [Venlafaxine],,"10233212, 10877013), which may increase risk of adverse effects (PMID 17803873). Consider alternative medications,",,"18214456, 19593180, 21288052); therefore, the patient may have an increased risk of adverse effects at standard",,,,,decreased,"Patient's genotype is associated with increased plasma levels of the active metabolite, O-desmethylvenlafaxine, and"
